Assay results reported in US11241501B2, “Anticancer prodrug for overcoming drug resistance” (Korea University Research and Business Foundation, priority 2018, dated 2022).

How the values were obtained:
HepG2 cells [1] = assay: Confocal intracellular localization with MitoTracker; type: cell-based, human; conditions: HepG2, 5 μM, 24 hr
Description: (§1) HepG2 cells treated with each compound (5 μM, 24 hr) were co-stained with the mitochondrial marker MitoTracker (green). Boxed regions show co-localization of the test compounds and probe within the mitochondria. […] Experiments were carried out in triplicate and the data shown represent means±SD. **p<0.01. […] HepG2 cells were incubated with BNPP (100 μM) for 2 hr prior to C1 treatment. **p<0.01. […] Cleaved caspase-3 and PARP-1 levels were examined to assess apoptosis induction. C, cleaved.
Cells were seeded on glass chamber slides (Nalgene Nunc) followed by probe treatment. After 48 h, the cells were fixed with 4% formaldehyde, and blocked with 2% bovine serum albumin-PBS for 30 min. The mitochondria were stained using MitoTracker™ Green FM (Invitrogen, USA) for 30 min. Fluorescent images were obtained using a confocal laser scanning microscope (Carl Zeiss MicroImaging, Inc., Germany).

[2] = system: p21^Waf1 and phosphorylated PDH levels; assay: Immunoblot assay of p21Waf1 and phosphorylated PDH; type: cell-based, human
Description: as §1
(§2) Immunoblot analyses were performed using antibodies specific for phosphorylated serine 293 PDH-EI (ab92696), p21^Waf1 (sc-397), cleaved PARP (5625), cleaved caspase-3 (9664), COX-IV (4850), and Cytochrome c (4280). They were purchased from Abcam (Cambridge, UK), Santa Cruz Biotechnology (Texas, USA) or Cell Signaling Technology (Massachusetts, USA). Anti-tubulin antibodies were obtained from Sigma-Aldrich (St. Louis, USA). Briefly, cells were washed twice in ice-cold PBS and lysed in a radioimmunoprecipitation assay buffer containing 50 mM Tris/HCl (pH 7.5), 150 mM NaCl, 0.1% sodium dodecyl sulfate (SDS), 1% Triton X-100, 1% sodium deoxycholate, and protease inhibitor mixture. After sonification, the lysate was centrifuged, and the supernatant was recovered and loaded onto a 12% SDS-polyacrylamide gel for electrophoresis.

HepG2 cells [3] = assay: Immunoblot assay of cleaved caspase-3 and PARP-1; type: cell-based, human
Description: as §2

[4] = Cell fractionation assay, mitochondria-to-nucleus trafficking; type: cell-based; conditions: after treatment with C1
Description: (§3) Fluorescence intensities were measured with SpectraMAX 13. Data represent means±SD. **p<0.01. […] Data represent means±SD. **[…]. […] Data represent the mean±SD (n=3 experimental replicates). *p<0.05, **p<0.01. […] MCF7/Dox cells were treated with C1 or C3 as indicated, and the cytosolic (C) and mitochondrial (M) fractions were subjected to immunoblot assay. COX-IV and tubulin were used as markers for the mitochondria and cytosol fractions, respectively.
Separation of cytosolic and mitochondrial fractions was performed using the Mitochondria Isolation Kit (Thermo Scientific, USA). Briefly, the cells were washed with cold PBS and lysed by 5-cycle freeze-thawing in Mitochondria Isolation Reagent A buffer, containing 10 mM phenylmethylsulfonyl fluoride (PMSF). After incubation on ice for 10 min and the addition of Mitochondria Isolation Reagent B buffer, the lysates were centrifuged at 700×g for 10 min following inverting by treating with Mitochondria Isolation Reagent C buffer. The supernatant was transferred to a new tube, centrifuged at 12 000×g for 15 min at 4° C., and collected as the cytosolic fraction. After adding […] of Mitochondria Isolation Reagent C, the pellet was centrifuged at 12 000×g for 5 min and collected as the mitochondrial fraction.

MCF7/Dox cells [5] = assay: Intracellular ATP, lactate levels and glucose uptake; type: cell-based, human
Description: as §3
Intracellular ATP levels were measured using an ATP Bioluminescence Assay Kit HSII (Roche Applied Science). Briefly, after the indicated treatment times for the test compound in question, cells were lysed with boiling lysis reagent and the supernatant was collected. […] of luciferin/Luciferase reagents. Luminescence was measured using Luminoskan Ascent (Thermo Scientific). Results were normalized to cell number. Intracellular L(+)-lactate level was measured using a lactate assay kit (BioVision). Cells were suspended with lactate assay buffer and incubated in the presence of the reaction mixture for 30 min. The lactate was quantified by measuring the absorbance at 570 nm using a Bio-Rad 680 microplate reader (Bio-Rad). For the glucose uptake assay, 2×10^5 cells were incubated in the presence of 20 mmol/L of 2-NBDG (2-[N-(7-nitrobenz-2-oxa-1,3-diazol-4-yl)amino]-2-deoxy-d-glucose; N13195; Invitrogen) for 2 h. The cells were re-suspended in cold growth medium and stained with propidium iodide. Samples were maintained on ice and analyzed via flow cytometry (Becton Dickinson).

MCF7/Dox cells [6] = assay: Cytochrome c release from mitochondria, immunoblot; type: cell-based, human
Description: as §3
as §2, with “electrophoresis. […]” for “electrophoresis.”

MCF7 cell line = assay: Cell viability, C1 versus Dox+DCA; type: cell-based, human
Description: (§4) Data represent the mean±SD. *p<0.05. […] Cells were seeded in 24 well plates at 2×10^5 cells per well and were allowed to adhere for at least 24 h, growth medium was replaced with medium containing C1 or its analogues at the indicated concentrations and times, and cell viability was assessed via the WST-1 assay (Roche Diagnostics, Laval, QC, Canada). For the colony formation assay, cells were seeded in 6-well plates. After 24 h, cells were maintained in the presence of each probe or vehicle dimethyl sulfoxide (DMSO) for 10 days. Colonies were fixed with methanol for 10 min and stained with 0.05% crystal violet in 20% ethanol.

MCF7/Dox cells [7] = assay: Cell viability, C1 versus Dox+DCA; type: cell-based, human; conditions: resistant MCF7/Dox cells
Description: as §4

MCF7/Dox cells [8] = assay: Assessment of mitochondrial membrane potential (CLSM); type: cell-based, human; conditions: 5 μM, 48 h
Description: To assess the mitochondrial membrane potential, MCF-7/Dox cells (5×10^3 cells) were seeded in glass-bottomed dishes and treated with 5 μM compound C1, C3, DCA, and/or doxorubicin for 48 h. After incubation, the cells were stained with 2 ml of a PBS solution containing 20 μM Mitoview™ 633 (Biotium, USA) and 100 nM Hoechst® 33342 (ThermoFisher, USA) for 30 min at 37° C. with 5% CO2. Fluorescence was detected using a Zeiss LSM 700 confocal laser scanning microscope (Carl Zeiss).

[9] = Hepatotoxicity assay, serum ALT and AST; type: in vivo; conditions: mice bearing MCF7/Dox tumors
Description: Tumors are shown (right). […] C1 injection led to a 58% reduction in tumor growth, which was statistically greater than the reductions seen in the case of C2 (16%), C3 (9%), C4 (6%) and DMSO (0%) tested under otherwise identical conditions.
Blood samples of each mice were centrifuged at 3,000 rpm for 10 min at 4° C. to produce serum. Then, the activities of ALT and AST in serum were analyzed using the AST and ALT Activity Assay Kits (MAK055, MAK052, Sigma) according to the manufacturer's instructions.

MCF7 and MCF7/Dox cells = assay: Mitochondrial localization in MCF7 and MCF7/Dox cells; type: cell-based, human
Text: Mito-tracker (green) was utilized to show the mitochondria;

## COc1cccc2c1C(=O)c1c(O)c3c(c(O)c1C2=O)C[C@@](O)(C(=O)CO)C[C@@H]3OC1C[C@H](NC(=O)OC(Cc2cn(CCCCCC[P+](c3ccccc3)(c3ccccc3)c3ccccc3)nn2)c2ccc(NC(=O)C(Cl)Cl)cc2)[C@H](O)[C@H](C)O1.[Br-] (stereo partly shown) [C1]
HepG2 cells [1]
  intracellular (mitochondrial) localization: located predominantly within the mitochondria
[2]
  effect on p21^Waf1 and phosphorylated PDH levels: up- and downregulation of p21^Waf1 and phosphorylated PDH levels
HepG2 cells [3]
  apoptosis-inducing activity (cleaved caspase-3 and PARP-1): greater apoptosis-inducing activity than C2
[4]
  time for released Dox to translocate to the nucleus: approximately 2 hr
MCF7/Dox cells [5]
  glucose uptake: decreased glucose uptake
  intracellular ATP levels: lowered intracellular ATP levels
  intracellular lactate levels: dose-dependent reduction of intracellular lactate levels
MCF7/Dox cells [6]
  cytochrome c release, cleavage of caspase-3 and PARP-1, decrease in cell viability: induces cytochrome c release from the mitochondria
MCF7 cell line
  reduction in cell viability: comparable reduction in cell viability
MCF7/Dox cells [7]
  cytotoxic effect: appreciable cytotoxic effect
MCF7/Dox cells [8]
  decrease in mitochondrial membrane potential Δψm: ca. 96%
[9]
  toxicity from ALT and AST levels in blood serum: no significant toxicity
MCF7 and MCF7/Dox cells
  mitochondrial localization: exhibited mitochondrial localization in both MCF7 and MCF7/Dox cells
